Assay results as given in EPA's ToxValDB 9.5 (doi:10.2903/j.efsa.2012.2799).

tested on: Oryctolagus sp.; conditions: developmental; development

Row | Structure (SMILES) | NOAEL [mg/kg-day]
1 | ClC1C(Cl)C(Cl)C(Cl)C(Cl)C1Cl (configuration not stated) [Lindane] | 5
2 | CON(C)C(=O)Nc1ccc(Cl)c(Cl)c1 [Linuron] | 10
3 | CC(C)N(C(=O)CCl)c1ccccc1 [Propachlor] | 58
4 | COC(=O)N(OC)c1ccccc1COc1ccn(-c2ccc(Cl)cc2)n1 [Pyraclostrobin] | 3
5 | CS(=O)(=O)c1ccc(C(=O)C2C(=O)CCCC2=O)c(Cl)c1COCC(F)(F)F [Tembotrione] | 1
6 | CN1COCN(Cc2cnc(Cl)s2)/C1=N/[N+](=O)[O-] [Thiamethoxam] | 50
7 | O=C(Nc1ccccc1)Nc1cnns1 [Thidiazuron] | 25
8 | Cc1cc(Cl)ccc1OCCCC(=O)O [Thitrol] | 5

same assay, conditions: reproduction developmental

Row | Structure (SMILES) | NOAEL [mg/kg-day]
9 | c1nc[n]([Sn]([CH]2CCCCC2)([CH]2CCCCC2)[CH]2CCCCC2)n1 [Azocyclotin] | 2
10 | CN/C(=N\[N+](=O)[O-])NCc1cnc(Cl)s1 [Clothianidin] | 10
11 | O=C(O)C1(C(=O)Nc2ccc(Cl)cc2Cl)CC1 [Cyclanilide] | 3
12 | C1CC[CH]([Sn+]([CH]2CCCCC2)[CH]2CCCCC2)CC1.[OH-] [Cyhexatin] | 2
13 | CC(Oc1ccc(Oc2ccc(Cl)cc2Cl)cc1)C(=O)O (configuration not stated) [Diclofop] | 3
14 | CC1=C(C)S(=O)(=O)CCS1(=O)=O [Dimethipin] | 20
15 | O=C(Nc1ccccc1)Nc1ccnc(Cl)c1 [Forchlorfenuron] | 100
16 | CC(=O)[O][Sn]([c]1ccccc1)([c]1ccccc1)[c]1ccccc1 [Triphenyltin acetate] | 0.1
17 | [OH-].c1cc[c]([Sn+]([c]2ccccc2)[c]2ccccc2)cc1 [Triphenyltin hydroxide] | 0.1

tested on: Canidae; conditions: acute; Dog Other

Row | Structure (SMILES) | NOAEL [mg/kg-day]
18 | CCOc1ccc2c(c1)C(C)=CC(C)(C)N2 [Ethoxyquin] | 50
19 | CCOC(=O)CSc1nc(C(C)(C)C)nn1C(=O)N(C)C [Triazamate] | 1.5

same assay, conditions: chronic; duration: 1 years; Dog Other

Row | Structure (SMILES) | NOAEL [mg/kg-day]
20 | CCOP(=O)(SC(C)CC)N1CCSC1=O (configuration not stated) [Fosthiazate] | 0.5

same assay, conditions: chronic; duration: 2 years; Dog Other

Row | Structure (SMILES) | NOAEL [mg/kg-day]
21 | Cc1ccc(N=CN(C)C=Nc2ccc(C)cc2C)c(C)c1 [Amitraz] | 1

same assay, conditions: short-term; duration: 2 weeks; Dog Other

Row | Structure (SMILES) | NOAEL [mg/kg-day]
22 | COc1cccc(C(=O)NN(C(=O)c2cc(C)cc(C)c2)C(C)(C)C)c1C [Methoxyfenozide] | 20

same assay, conditions: subchronic; duration: 1 months; Dog Other

Row | Structure (SMILES) | NOAEL [mg/kg-day]
23 | O=C(O)COC(=O)c1cc(Oc2ccc(C(F)(F)F)cc2Cl)ccc1[N+](=O)[O-] | 60

same assay, conditions: subchronic; duration: 90 days; Dog Other

Row | Structure (SMILES) | NOAEL [mg/kg-day]
24 | Cc1ccc(N=CN(C)C=Nc2ccc(C)cc2C)c(C)c1 [Amitraz] | 1
25 | CCOP(=O)(SC(C)CC)N1CCSC1=O (configuration not stated) [Fosthiazate] | 0.5
26 | C[n+]1ccc(-c2cc[n+](C)cc2)cc1 [Paraquat] | 0.5

tested on: Mus musculus; conditions: short-term; duration: 14 days

Row | Structure (SMILES) | NOAEL [mg/kg-day]
27 | CC1(c2ccc(Oc3ccccc3)cc2)OC(=O)N(Nc2ccccc2)C1=O (configuration not stated) [Famoxadone] | 20

tested on: Rattus norvegicus; conditions: acute

Row | Structure (SMILES) | NOAEL [mg/kg-day]
28 | OC(c1ccc(Cl)cc1)(c1ccc(Cl)cc1)C(Cl)(Cl)Cl [Dicofol] | 15
29 | CCOP(=S)(OCC)SCCSCC [Disulfoton] | 0.3
30 | COC(=O)N(C(=O)N1CO[C@@]2(C(=O)OC)Cc3cc(Cl)ccc3C2=N1)c1ccc(OC(F)(F)F)cc1 [Indoxacarb] | 12.5
31 | CCOP(=S)(OCC)Oc1ccc([N+](=O)[O-])cc1 [Parathion] | 0.5
32 | CCOP(=S)(OCC)SCSCC [Phorate] | 0.3
33 | CCCSP(=O)(OCC)Oc1ccc(Br)cc1Cl (configuration not stated) [Profenofos] | 100
34 | CCNc1nc(Cl)nc(NCC)n1 [Simazine] | 2.5
35 | CCOP(=S)(OCC)SCSC(C)(C)C [Terbufos] | 0.2

same assay, conditions: developmental; development

Row | Structure (SMILES) | NOAEL [mg/kg-day]
36 | S=C1NCCN1 [4,5-Dihydro-2-mercaptoimidazole] | 5
37 | COCC(=O)N(c1c(C)cccc1C)[C@H](C)C(=O)OC [Metalaxyl-M] | 50
38 | CC12CC1(C)C(=O)N(c1cc(Cl)cc(Cl)c1)C2=O (configuration not stated) [Procymidone] | 3.5
39 | CCN(CC)C(=O)SCc1ccc(Cl)cc1 [Thiobencarb] | 25
40 | C=CC1(C)OC(=O)N(c2cc(Cl)cc(Cl)c2)C1=O (configuration not stated) [Vinclozolin] | 6

same assay, conditions: repeat dose other

Row | Structure (SMILES) | NOAEL [mg/kg-day]
41 | N#Cc1c(Cl)c(Cl)c(Cl)c(C#N)c1Cl [Chlorothalonil] | 60

same assay, conditions: reproduction developmental

Row | Structure (SMILES) | NOAEL [mg/kg-day]
42 | CCNc1nc(Cl)nc(NC(C)C)n1 [Atrazine] | 2.5
43 | CN/C(=N\[N+](=O)[O-])NCc1cnc(Cl)s1 [Clothianidin] | 10
44 | CC(C)(C)[C@@H](O)/C(=C\c1ccc(Cl)cc1Cl)n1cncn1 [Diniconazole-M] | 5

same assay, conditions: short-term; duration: 4 days

Row | Structure (SMILES) | NOAEL [mg/kg-day]
45 | COC[C@H](C)N(C(=O)CCl)c1c(C)csc1C [Dimethenamid-P] | 25

same assay, conditions: subchronic; duration: 90 days

Row | Structure (SMILES) | NOAEL [mg/kg-day]
46 | CC(C)N1C(=O)c2ccccc2NS1(=O)=O [Bentazone] | 25
47 | COC(=O)c1c(Cl)c(Cl)c(C(=O)OC)c(Cl)c1Cl [Chlorthal-dimethyl] | 50
